Measurements reported in patent US11161844B2, “Cyclic substituted imidazo[4,5-c]quinoline derivatives” (Pfizer Inc., priority 2017, dated 2021).
pIC50: −log10 of the molar value.

How the values were obtained:
[1] = target: LRRK2, WT (GST-tagged truncated LRRK2) (Homo sapiens (Human), UniProt Q5S007); assay: LRRK2 kinase assay (Lantha Screen), wild type; assay type: biochemical; settings: 100 nM LRRKtide, 1 mM ATP, 2 μg/mL enzyme; geometric mean of 2-4 determinations unless otherwise indicated
Experimental: (§1) LRRK2 kinase activity was measured using Lantha Screen technology from Invitrogen. GST-tagged truncated LRRK2 from Invitrogen (Cat #PV4874) was incubated with a fluorescein-labeled peptide substrate based upon ezrin/radixin/moesin (ERM), also known as LRRKtide (Invitrogen cat #PR8976A), in the presence of a dose response of compound. Upon completion, the assay was stopped and detected with a terbium labeled anti-phospho-ERM antibody (Invitrogen, cat #PR8975A). The assay was carried out under the following protocol: The compound dose response was prepared by diluting compound to a top concentration of 0.3 mM in 100% DMSO and serial diluted by half-log in DMSO to give an 11 point curve, 100× final assay concentration. Using Echo acoustic dispensing, 60 nL of compound was transferred to a low volume Corning 384-well assay plate. 3 μL of a working solution of substrate (200 nM LRRKtide, 2 mM ATP) prepared in assay buffer (50 mM HEPES, pH 7.5, 3 mM MgCl2, with 2 mM DTT and 0.01% Brij35 added fresh) was added to the 60 nL compound assay plate. The kinase reaction was started with 3 μL of a working solution of LRRK2 enzyme at a concentration of 4 μg/mL. The final reaction concentrations were 100 nM LRRKtide, 1 mM ATP, 2 μg/mL LRRK2 enzyme and a compound dose response with a top dose of 3 μM. The reaction was allowed to progress at room temperature for 30 minutes and then stopped with the addition of 6 μL of detection buffer (20 mM Tris pH 7.6, 0.01% NP-40, 6 mM EDTA with 2 nM terbium labeled anti-phospho-ERM). After an incubation of 1 hour at room temperature, the plate was read on an Envision with an excitation wavelength of 340 nm and a reading emission at both 520 nm and 495 nm. The ratio of the 520 nm and 495 nm emission was used to analyze the data. Inhibition of mutant G2019S LRRK2 (Invitrogen cat #PV4881) was measured in the exact same method. All final concentrations of substrate ATP and enzyme were the same.

mutant G2019S LRRK2 = mutant G2019S LRRK2 (Homo sapiens (Human), UniProt Q5S007, G2019S); assay: LRRK2 kinase assay (Lantha Screen), mutant G2019S; assay type: biochemical; settings: 100 nM LRRKtide, 1 mM ATP, 2 μg/mL enzyme; single determination unless otherwise indicated
Chain of mutant G2019S LRRK2 (Q5S007 970-2527 G2019S): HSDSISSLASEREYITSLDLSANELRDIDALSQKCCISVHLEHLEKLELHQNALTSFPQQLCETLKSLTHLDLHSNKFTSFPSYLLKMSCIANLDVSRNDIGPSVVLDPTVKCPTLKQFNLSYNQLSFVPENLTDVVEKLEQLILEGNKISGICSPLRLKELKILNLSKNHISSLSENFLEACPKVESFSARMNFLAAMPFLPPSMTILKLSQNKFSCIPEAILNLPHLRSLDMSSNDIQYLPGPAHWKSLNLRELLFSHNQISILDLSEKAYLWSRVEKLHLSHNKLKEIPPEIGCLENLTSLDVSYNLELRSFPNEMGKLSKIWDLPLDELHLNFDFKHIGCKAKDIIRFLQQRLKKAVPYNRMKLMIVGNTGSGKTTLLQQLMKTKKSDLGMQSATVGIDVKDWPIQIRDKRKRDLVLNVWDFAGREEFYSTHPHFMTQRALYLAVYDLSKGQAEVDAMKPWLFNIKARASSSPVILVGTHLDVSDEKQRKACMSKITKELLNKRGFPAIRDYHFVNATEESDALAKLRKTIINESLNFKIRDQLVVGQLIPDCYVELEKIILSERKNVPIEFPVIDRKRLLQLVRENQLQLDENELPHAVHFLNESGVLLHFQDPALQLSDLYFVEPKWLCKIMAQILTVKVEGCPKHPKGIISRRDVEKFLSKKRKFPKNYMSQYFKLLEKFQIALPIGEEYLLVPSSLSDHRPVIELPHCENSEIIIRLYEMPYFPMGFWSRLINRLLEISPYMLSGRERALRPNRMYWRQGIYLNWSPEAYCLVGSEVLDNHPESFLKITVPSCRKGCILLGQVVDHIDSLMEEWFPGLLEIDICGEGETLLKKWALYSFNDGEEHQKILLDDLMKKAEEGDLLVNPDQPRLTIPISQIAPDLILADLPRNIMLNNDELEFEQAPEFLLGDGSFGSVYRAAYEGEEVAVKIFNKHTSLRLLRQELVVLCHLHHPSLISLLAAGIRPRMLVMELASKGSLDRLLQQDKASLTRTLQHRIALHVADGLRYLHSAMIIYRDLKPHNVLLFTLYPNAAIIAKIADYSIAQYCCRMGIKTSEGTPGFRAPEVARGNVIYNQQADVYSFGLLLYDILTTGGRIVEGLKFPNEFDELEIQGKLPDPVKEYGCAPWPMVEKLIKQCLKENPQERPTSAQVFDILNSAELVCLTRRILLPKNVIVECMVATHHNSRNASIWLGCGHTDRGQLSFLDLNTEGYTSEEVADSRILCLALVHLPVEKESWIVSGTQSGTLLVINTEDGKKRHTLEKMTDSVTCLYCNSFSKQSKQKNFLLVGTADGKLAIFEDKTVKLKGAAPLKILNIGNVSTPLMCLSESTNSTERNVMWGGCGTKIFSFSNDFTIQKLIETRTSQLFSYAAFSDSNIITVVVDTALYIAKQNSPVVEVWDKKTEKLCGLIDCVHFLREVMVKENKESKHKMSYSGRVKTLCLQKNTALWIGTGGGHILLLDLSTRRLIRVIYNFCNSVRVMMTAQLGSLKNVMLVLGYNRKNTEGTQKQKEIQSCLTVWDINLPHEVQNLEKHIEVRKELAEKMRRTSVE
Experimental: as §1

Chain of LRRK2, WT (GST-tagged truncated LRRK2) (Q5S007 970-2527): as the sequence (Q5S007 970-2527 G2019S) above, with S1050G counted along it

## CN1CC(n2c(C3CCC(F)C3)nc3cnc4ccc(C#N)cc4c32)C(F)(F)C1 (stereo not shown) [Example 57, 1-(4,4-difluoro-1-methylpyrrolidin-3-yl)-2-(3-fluorocyclopentyl)-1H-imidazo[4,5-c]quinoline-8-carbonitrile]
[1]
  pIC50: 8.34
Mutant G2019S LRRK2
  pIC50: 8.23

## C[C@@H]1C[C@H](n2c(C3CCOCC3)nc3cnc4ccc(Cl)cc4c32)CCO1 [Example 7, 8-chloro-1-[(2R,4R)-2-methyltetrahydro-2H-pyran-4-yl]-2-(tetrahydro-2H-pyran-4-yl)-1H-imidazo[4,5-c]quinoline]
[1]
  pIC50: 7.79
Mutant G2019S LRRK2
  pIC50: 7.74

## CN1CC[C@@H](n2c([C@H]3CCOC3)nc3cnc4ccc(C#N)cc4c32)C1 [Example 25, 1-[(3R)-1-methylpyrrolidin-3-yl]-2-[(3R)-tetrahydrofuran-3-yl]-1H-imidazo[4,5-c]quinoline-8-carbonitrile]
[1]
  pIC50: 7.49
Mutant G2019S LRRK2
  pIC50: 7.10

## N#CC[C@@H]1C[C@H](n2c(C3CC(F)(F)C3)nc3cnc4ccc(Cl)cc4c32)CCO1 (single isomer, unassigned) [Example 27, {cis-4-[8-chloro-2-(3,3-difluorocyclobutyl)-1H-imidazo[4,5-c]quinolin-1-yl]tetrahydro-2H-pyran-2-yl}acetonitrile]
[1]
  pIC50: 7.92
Mutant G2019S LRRK2
  pIC50: 7.91

## CN1CC[C@@H](n2c(C3CCC(F)C3)nc3cnc4ccc(C#N)cc4c32)C1 (stereo partly drawn) [Example 32, 2-[cis-3-fluorocyclopentyl]-1-[(3R)-1-methylpyrrolidin-3-yl]-1H-imidazo[4,5-c]quinoline-8-carbonitrile]
[1]
  pIC50: 7.71
Mutant G2019S LRRK2
  pIC50: 7.42

## CN1CC[C@@H](n2c3c(cnc4ccc(C#N)cc43)nc2[C@H]2CC[C@@H](F)CC2)C1 [Example 23, 2-(cis-4-fluorocyclohexyl)-1-[(3R)-1-methylpyrrolidin-3-yl]-1H-imidazo[4,5-c]quinoline-8-carbonitrile]
[1]
  pIC50: 7.96
Mutant G2019S LRRK2
  pIC50: 7.48

## CN1CC[C@@H](n2c(C3CCC(F)C3)nc3cnc4ccc(F)cc4c32)C1 (stereo partly drawn) [Example 34, 8-fluoro-2-[cis-3-fluorocyclopentyl]-1-[(3R)-1-methylpyrrolidin-3-yl]-1H-imidazo[4,5-c]quinoline]
[1]
  pIC50: 7.22
Mutant G2019S LRRK2
  pIC50: 7.11

## C[C@@H]1C[C@H](n2c3c(cnc4ccc(Cl)cc43)nc2[C@H]2C[C@@H](F)C2)CCO1 [Example 2, 8-chloro-2-(cis-3-fluorocyclobutyl)-1-[(2R,4R)-2-methyltetrahydro-2H-pyran-4-yl]-1H-imidazo[4,5-c]quinoline]
[1]
  pIC50: 8.05
Mutant G2019S LRRK2
  pIC50: 8.26

## C[C@@H]1C[C@H](n2c(C3CCC(F)(F)CC3)nc3cnc4ccc(Cl)cc4c32)CCO1 [Example 8, 8-chloro-2-(4,4-difluorocyclohexyl)-1-[(2R,4R)-2-methyltetrahydro-2H-pyran-4-yl]-1H-imidazo[4,5-c]quinoline]
[1]
  pIC50: 7.80
Mutant G2019S LRRK2
  pIC50: 7.92

## C[C@@H]1C[C@H](n2c(C3CC(C)(F)C3)nc3cnc4ccc(Cl)cc4c32)CCO1 (stereo partly drawn) [Example 3, 8-chloro-2-(cis-3-fluoro-3-methylcyclobutyl)-1-[(2R,4R)-2-methyltetrahydro-2H-pyran-4-yl]-1H-imidazo[4,5-c]quinoline]
[1]
  pIC50: 8.17
Mutant G2019S LRRK2
  pIC50: 8.26

## C[C@@H]1C[C@H](n2c(C3CCC(F)(F)C3)nc3cnc4ccc(Cl)cc4c32)CCO1 (stereo partly drawn) [Example 11, 8-chloro-2-(3,3-difluorocyclopentyl)-1-[(2R,4R)-2-methyltetrahydro-2H-pyran-4-yl]-1H-imidazo[4,5-c]quinoline]
[1]
  pIC50: 7.69
Mutant G2019S LRRK2
  pIC50: 7.86

## N#CCC1CC(n2c([C@H]3CCOC3)nc3cnc4ccc(Cl)cc4c32)CCO1 (stereo partly drawn) [Example 30, [cis-4-{8-chloro-2-[(3R)-tetrahydrofuran-3-yl]-1H-imidazo[4,5-c]quinolin-1-yl}tetrahydro-2H-pyran-2-yl]acetonitrile]
[1]
  pIC50: 8.22
Mutant G2019S LRRK2
  pIC50: 8.52

## CC1CC(c2nc3cnc4ccc(Cl)cc4c3n2[C@@H]2CCO[C@H](C)C2)CO1 (stereo partly drawn) [Example 10, 8-chloro-2-(5-methyltetrahydrofuran-3-yl)-1-[(2R,4R)-2-methyltetrahydro-2H-pyran-4-yl]-1H-imidazo[4,5-c]quinoline]
[1]
  pIC50: 7.64
Mutant G2019S LRRK2
  pIC50: 7.63

## C[C@@H]1C[C@H](n2c([C@H]3CCOC3)nc3cnc4ccc(C(F)(F)F)cc4c32)CCO1 [Example 26, 1-[(2R,4R)-2-methyltetrahydro-2H-pyran-4-yl]-2-[(3R)-tetrahydrofuran-3-yl]-8-(trifluoromethyl)-1H-imidazo[4,5-c]quinoline]
[1]
  pIC50: 8.01
Mutant G2019S LRRK2
  pIC50: 8.24

## CC1(C)CC(n2c(C3CCC(F)C3)nc3cnc4ccc(C#N)cc4c32)CCO1 (stereo not shown) [Example 42, 1-(2,2-dimethyltetrahydro-2H-pyran-4-yl)-2-(3-fluorocyclopentyl)-1H-imidazo[4,5-c]quinoline-8-carbonitrile]
[1]
  pIC50: 7.34
Mutant G2019S LRRK2
  pIC50: 7.34

## C[C@@H]1C[C@H](n2c3c(cnc4ccc(Cl)cc43)nc2[C@H]2CC[C@@H](F)CC2)CCO1 [Example 1, 8-chloro-2-(cis-4-fluorocyclohexyl)-1-[(2R,4R)-2-methyltetrahydro-2H-pyran-4-yl]-1H-imidazo[4,5-c]quinoline]
[1]
  pIC50: 8.14
Mutant G2019S LRRK2
  pIC50: 8.32

## N#CC[C@@H]1C[C@H](n2c3c(cnc4ccc(Cl)cc43)nc2[C@H]2CC[C@@H](F)CC2)CCO1 [Example 28, {(2S,4R)-4-[8-chloro-2-(cis-4-fluorocyclohexyl)-1H-imidazo[4,5-c]quinolin-1-yl]tetrahydro-2H-pyran-2-yl}acetonitrile]
[1]
  pIC50: 8.01
Mutant G2019S LRRK2
  pIC50: 8.29

## CC1(C)CC(n2c(C3CCC(F)C3)nc3cnc4ccc(C#N)cc4c32)CCO1 (stereo not shown) [Example 39, 1-(2,2-dimethyltetrahydro-2H-pyran-4-yl)-2-(3-fluorocyclopentyl)-1H-imidazo[4,5-c]quinoline-8-carbonitrile]
[1]
  pIC50: 8.33
Mutant G2019S LRRK2
  pIC50: 8.36

## C[C@@H]1C[C@H](n2c3c(cnc4ccc(C#N)cc43)nc2[C@H]2CC[C@@H](F)CC2)CCO1 [Example 15, 2-(cis-4-fluorocyclohexyl)-1-[(2R,4R)-2-methyltetrahydro-2H-pyran-4-yl]-1H-imidazo[4,5-c]quinoline-8-carbonitrile]
[1]
  pIC50: 8.17
Mutant G2019S LRRK2
  pIC50: 8.08

## CN1CC(n2c(C3CCC(F)C3)nc3cnc4ccc(C#N)cc4c32)C(F)(F)C1 (stereo not shown) [Example 58, 1-(4,4-difluoro-1-methylpyrrolidin-3-yl)-2-(3-fluorocyclopentyl)-1H-imidazo[4,5-c]quinoline-8-carbonitrile]
[1]
  pIC50: 7.91
Mutant G2019S LRRK2
  pIC50: 7.67

## C[C@@H]1C[C@H](n2c([C@H]3CCOC3)nc3cnc4ccc(C#N)cc4c32)CCO1 [Example 16, 1-[(2R,4R)-2-methyltetrahydro-2H-pyran-4-yl]-2-[(3R)-tetrahydrofuran-3-yl]-1H-imidazo[4,5-c]quinoline-8-carbonitrile]
[1]
  pIC50: 7.79
Mutant G2019S LRRK2
  pIC50: 7.97

## CN1CC[C@@H](n2c3c(cnc4ccc(C#N)cc43)nc2[C@H]2C[C@@H](F)C2)C1 [Example 24, 2-(cis-3-fluorocyclobutyl)-1-[(3R)-1-methylpyrrolidin-3-yl]-1H-imidazo[4,5-c]quinoline-8-carbonitrile]
[1]
  pIC50: 8.28
Mutant G2019S LRRK2
  pIC50: 7.65

## C[C@@H]1C[C@H](n2c3c(cnc4ccc(C#N)cc43)nc2[C@H]2C[C@@](C)(F)C2)CCO1 [Example 18, 2-(cis-3-fluoro-3-methylcyclobutyl)-1-[(2R,4R)-2-methyltetrahydro-2H-pyran-4-yl]-1H-imidazo[4,5-c]quinoline-8-carbonitrile]
[1]
  pIC50: 7.98
Mutant G2019S LRRK2
  pIC50: 8.08
